Experiment [1] is described as follows: MC4R antagonists, dose response, counter-screen for LGR2 antagonist project, cell-based, plate reader, cherry pick (AID 743444).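 Note: transfected HEK 293 cells stimulated with alpha-MSH peptide; potency of inhibitors of the alpha-MSH evoked signal.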 Format: functional. (A counterscreen serves to expose hits that act by an unwanted route or on another target.)
Experiment [2] can be described thus: luciferase reporter signal reduction – luminescence, H4-C neuroglioblastoma cells, dose response (AID 2458).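 Note: H4 neuroglioblastoma cells stably carrying a luciferase reporter gene fusion.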 It is filed as functional, cell-based. In general terms: In a reporter assay the amount or activity of a reporter protein is the signal.
A short description of experiment [3]: cells. Format: functional, cell-based.
Experiment [4] is described as follows: Luminescence Cell-Based Dose Response HTS to Identify Inhibitors of 5'UTR Stem-Loop Driven Prion Protein mRNA Translation in H4 Neuroglioblastoma Cells. [Related pubchem assays: 1827 (Project Summary), 1813 (Primary HTS)]. Format: functional.
Experiment [5] in a line: HEK293 cell cytotoxicity, dose response, cytotoxicity control, plate reader, cherry-picked samples (AID 743446). It is filed as functional, cell-based.
Experiment [6] in a line: inhibitors of firefly luciferase expression or activity, dose response, H4 neuroglioma cells, luminescence (AID 1990). It is filed as functional, cell-based.
Experiment [7] can be described thus: inhibitors of SNCA 5'UTR-driven reporter translation, confirmation, H4 neuroglioma cells, luminescence (AID 1988). Format: functional, cell-based.
In experiment [8] the target is 5-hydroxytryptamine receptor 5A (Homo sapiens, UniProt P47898). Kind of experiment: Counterscreen for agonists of OPRM1-OPRD1 heterodimerization: luminescence-based cell-based high throughput dose response assay to identify agonists of 5-hydroxytryptamine (serotonin) 5A receptor (HTR5A). [Related pubchem assays (depositor defined):AID504326, AID504355, AID504692, AID504904, AID504905]. Format: functional.
Chain of 5-hydroxytryptamine receptor 5A (P47898 whole entry): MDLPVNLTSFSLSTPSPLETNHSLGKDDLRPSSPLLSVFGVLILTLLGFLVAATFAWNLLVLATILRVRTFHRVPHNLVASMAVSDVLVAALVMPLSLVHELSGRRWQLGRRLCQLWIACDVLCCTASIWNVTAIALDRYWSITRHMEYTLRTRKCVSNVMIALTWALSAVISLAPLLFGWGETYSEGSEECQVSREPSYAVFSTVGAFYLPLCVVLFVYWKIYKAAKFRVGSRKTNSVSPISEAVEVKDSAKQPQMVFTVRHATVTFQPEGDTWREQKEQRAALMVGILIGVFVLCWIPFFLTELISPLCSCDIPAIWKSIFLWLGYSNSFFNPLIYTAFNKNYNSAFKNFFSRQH

In experiment [9] the target is T1, Microphthalmia-associated transcription factor (Homo sapiens, UniProt O75030).
T1 sequence (O75030 whole entry): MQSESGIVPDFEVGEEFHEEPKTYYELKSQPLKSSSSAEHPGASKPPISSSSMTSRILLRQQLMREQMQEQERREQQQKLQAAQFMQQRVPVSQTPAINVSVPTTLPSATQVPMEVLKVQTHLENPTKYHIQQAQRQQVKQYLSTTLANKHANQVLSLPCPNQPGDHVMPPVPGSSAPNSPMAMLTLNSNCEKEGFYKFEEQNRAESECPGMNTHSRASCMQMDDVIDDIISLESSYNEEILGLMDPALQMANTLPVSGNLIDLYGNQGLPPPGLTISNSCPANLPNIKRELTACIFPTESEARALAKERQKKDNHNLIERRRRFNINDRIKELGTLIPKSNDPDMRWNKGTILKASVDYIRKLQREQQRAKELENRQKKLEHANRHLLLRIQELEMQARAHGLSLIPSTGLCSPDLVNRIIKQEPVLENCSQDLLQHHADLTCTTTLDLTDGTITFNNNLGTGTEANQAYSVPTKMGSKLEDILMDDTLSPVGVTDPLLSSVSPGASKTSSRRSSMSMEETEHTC
Kind of experiment: TRPM1 promoter luciferase signal decrease, dose response, MITF inhibitor project, cell-based, SK-MEL-5, cherry-picked, set 3 (AID 493073).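 Note: SK-MEL-5 melanoma cells with luciferase driven by the MITF target TRPM1 promoter.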 Format: functional.

The target in experiment [10] is Delta-type opioid receptor (Homo sapiens, UniProt P41143). Kind of experiment: Counterscreen for agonists of heterodimerization of the mu 1 (OPRM1) and delta 1 (OPRD1) opioid receptors: Luminescence-based cell-based high throughput dose response assay to identify agonists of OPRD1 homodimerization. [Related pubchem assays (depositor defined):AID504326, AID504355, AID504692, AID504904, AID504905]. It is filed as functional.
Chain of Delta-type opioid receptor (P41143 whole entry): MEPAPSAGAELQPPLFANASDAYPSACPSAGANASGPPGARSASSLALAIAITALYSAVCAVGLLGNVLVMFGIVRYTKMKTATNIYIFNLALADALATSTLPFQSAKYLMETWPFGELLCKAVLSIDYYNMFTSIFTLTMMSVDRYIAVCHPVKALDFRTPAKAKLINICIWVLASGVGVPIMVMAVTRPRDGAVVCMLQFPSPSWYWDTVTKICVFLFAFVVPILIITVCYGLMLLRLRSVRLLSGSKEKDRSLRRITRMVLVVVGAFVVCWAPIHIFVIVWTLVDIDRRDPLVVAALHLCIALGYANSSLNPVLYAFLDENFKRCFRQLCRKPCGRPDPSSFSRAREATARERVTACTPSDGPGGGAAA

A short description of experiment [11]: inhibitors of SNCA 5'UTR-driven translation, confirmation, luminescence, H4 neuroglioblastoma cells, dose confirmation (AID 2454).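 Note: H4 neuroglioblastoma cells carrying an alpha-synuclein 5'UTR luciferase reporter; potency for inhibition of the luciferase signal.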 It is filed as functional, cell-based.
Experiment [12] in a line: LGR2 antagonists, dose response, cell-based, HEK293, CRE-luciferase reporter, cherry pick, set 2 (AID 743343).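 Note: transfected cells were stimulated with diluted bursicon conditioned medium after compound addition.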 It is filed as functional.
Experiment [13] in a line: A549 cell cytotoxicity, dose response, cytotoxicity control, plate reader, cherry-pick, antagonist series (AID 743412). Format: functional, cell-based.
A short description of experiment [14]: HepG2 cell cytotoxicity, dose response, cytotoxicity control, plate reader, cherry-pick, antagonist series (AID 743416). Format: functional, cell-based.
For experiment [15], the target named is Mu-type opioid receptor (Homo sapiens, UniProt P35372). Nature of the experiment: Counterscreen for agonists of heterodimerization of the mu 1 (OPRM1) and delta 1 (OPRD1) opioid receptors: Luminescence-based cell-based high throughput dose response assay to identify agonists of OPRM1 homodimerization. Format: functional.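 Note: U2OS cells expressing OPRM1 and beta-arrestin as split beta-galactosidase partners.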
Chain of Mu-type opioid receptor (P35372 whole entry): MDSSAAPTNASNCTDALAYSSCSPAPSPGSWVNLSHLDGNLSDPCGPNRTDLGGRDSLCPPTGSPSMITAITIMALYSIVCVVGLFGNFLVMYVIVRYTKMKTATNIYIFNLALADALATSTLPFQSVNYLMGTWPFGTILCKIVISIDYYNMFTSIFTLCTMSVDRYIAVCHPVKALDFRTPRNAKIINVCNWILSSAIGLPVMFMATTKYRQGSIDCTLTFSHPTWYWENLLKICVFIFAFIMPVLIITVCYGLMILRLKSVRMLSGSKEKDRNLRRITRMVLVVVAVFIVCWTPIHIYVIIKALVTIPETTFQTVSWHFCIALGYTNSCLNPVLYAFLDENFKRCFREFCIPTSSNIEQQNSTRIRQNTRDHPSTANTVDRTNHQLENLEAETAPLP
In experiment [16] the test system is BJ. Nature of the experiment: cytotoxicity toward Ras-transformed BJeLR fibroblasts, dose response, cell-based, alamar blue fluorescence, cherrypicked samples (AID 2631).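 Note: confirmatory dose-response assay in RAS-dependent BJ fibroblasts engineered with TERT, LT and ST, with cytotoxicity read by fluorescence.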 Format: functional. The note with it: Homo sapiens.
A short description of experiment [17]: cytotoxicity toward DRD oncogenic fibroblasts, dose response, cell-based, non-viral oncogenic, luminescence (AID 1934). Format: functional. The note with it: Homo sapiens.
Experiment [18] relates to BJ. Nature of the experiment: cytotoxicity toward BJ-TERT-LT-ST fibroblasts, dose response, cell-based, RAS-independent, luminescence (AID 1935).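 Note: BJ fibroblasts immortalized with TERT plus LT and ST oncogenes.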 The note with it: Homo sapiens. Format: functional.
Experiment [19] concerns BJ. Kind of experiment: cells. The settings on record: Homo sapiens. Format: functional, cell-based.
Experiment [20] deals with BJ. Nature of the experiment: cytotoxicity toward BJ-TERT fibroblasts, dose response, cell-based, RAS-independent, luminescence (AID 1933). The note with it: Homo sapiens. It is filed as functional.
Experiment [21] deals with Heat shock protein HSP 90-alpha (Homo sapiens, UniProt P07900). Format: functional, organism-based.
Experiment [22] has as its system Vero. Nature of the experiment: Vero cell cytotoxicity, cytotoxicity control for flavivirus capping enzyme inhibitors (AID 588742). Format: functional. The settings on record: Chlorocebus sabaeus.
For experiment [23], the target named is Genome polyprotein (dengue virus type 2, UniProt P29990). Kind of experiment: Dengue-2 NS5 methyltransferase inhibitors, primary screen, biochemical, confirmation dose response (AID 588689). Format: functional.
Chain of Genome polyprotein (P29990 2492-3391 limits assumed): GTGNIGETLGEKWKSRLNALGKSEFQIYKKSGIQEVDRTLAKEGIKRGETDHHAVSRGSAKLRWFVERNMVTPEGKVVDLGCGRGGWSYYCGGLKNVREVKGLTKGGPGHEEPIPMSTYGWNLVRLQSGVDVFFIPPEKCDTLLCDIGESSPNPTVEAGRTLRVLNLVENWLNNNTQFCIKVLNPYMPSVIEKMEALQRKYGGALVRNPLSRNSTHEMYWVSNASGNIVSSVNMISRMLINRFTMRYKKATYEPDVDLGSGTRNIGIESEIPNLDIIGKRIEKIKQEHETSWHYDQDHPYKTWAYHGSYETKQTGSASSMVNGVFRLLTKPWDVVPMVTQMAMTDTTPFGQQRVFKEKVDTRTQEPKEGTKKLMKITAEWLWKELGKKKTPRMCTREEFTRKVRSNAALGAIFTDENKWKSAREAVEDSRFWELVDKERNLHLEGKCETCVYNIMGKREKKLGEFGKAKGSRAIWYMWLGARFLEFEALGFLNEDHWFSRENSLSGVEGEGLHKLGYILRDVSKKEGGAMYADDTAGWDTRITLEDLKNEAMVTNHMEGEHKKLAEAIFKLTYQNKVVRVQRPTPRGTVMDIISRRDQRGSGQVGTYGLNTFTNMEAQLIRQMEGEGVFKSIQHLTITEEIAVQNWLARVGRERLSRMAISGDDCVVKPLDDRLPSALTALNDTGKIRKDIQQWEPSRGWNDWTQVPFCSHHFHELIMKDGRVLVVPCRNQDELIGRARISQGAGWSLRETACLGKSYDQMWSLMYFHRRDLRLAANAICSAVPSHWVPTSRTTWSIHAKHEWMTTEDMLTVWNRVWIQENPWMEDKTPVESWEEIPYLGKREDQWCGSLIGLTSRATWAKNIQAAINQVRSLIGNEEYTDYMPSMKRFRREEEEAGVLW
The target in experiment [24] is Beta-arrestin-1 (Homo sapiens, UniProt P49407). Nature of the experiment: inhibitors of arrestin peptide binding to AP2, dose response, biochemical, cherry pick 1, beta2-adaptin appendage, flow cytometry (AID 588783). Format: functional. (A flow cytometer gives signals particle by particle.)
Chain of Beta-arrestin-1 (P49407 whole entry): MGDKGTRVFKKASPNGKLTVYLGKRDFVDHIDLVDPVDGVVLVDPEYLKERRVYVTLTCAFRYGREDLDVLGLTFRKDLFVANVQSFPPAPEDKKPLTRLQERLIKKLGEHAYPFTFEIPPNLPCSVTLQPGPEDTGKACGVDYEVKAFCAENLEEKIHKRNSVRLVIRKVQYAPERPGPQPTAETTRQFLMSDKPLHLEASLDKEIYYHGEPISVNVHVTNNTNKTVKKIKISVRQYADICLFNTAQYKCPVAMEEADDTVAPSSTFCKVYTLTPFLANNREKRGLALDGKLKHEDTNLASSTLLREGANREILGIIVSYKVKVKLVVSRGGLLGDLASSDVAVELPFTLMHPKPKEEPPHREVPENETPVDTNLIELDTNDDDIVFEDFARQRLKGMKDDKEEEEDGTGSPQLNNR
Experiment [25] concerns the target Glucose-6-phosphate 1-dehydrogenase (Homo sapiens, UniProt P11413). Kind of experiment: human G6PD enzyme inhibitors, dose response, selectivity assay for P. falciparum G6PD inhibitor project, biochemical, fluorescence (AID 504792). It is filed as functional.
For experiment [26], the system named is Vero. Nature of the experiment: cells. It is filed as functional. The settings on record: Chlorocebus sabaeus.
Experiment [27] addresses T2, Short transient receptor potential channel 4 (Mus musculus, UniProt Q9QUQ5).
T2 sequence (Q9QUQ5 whole entry): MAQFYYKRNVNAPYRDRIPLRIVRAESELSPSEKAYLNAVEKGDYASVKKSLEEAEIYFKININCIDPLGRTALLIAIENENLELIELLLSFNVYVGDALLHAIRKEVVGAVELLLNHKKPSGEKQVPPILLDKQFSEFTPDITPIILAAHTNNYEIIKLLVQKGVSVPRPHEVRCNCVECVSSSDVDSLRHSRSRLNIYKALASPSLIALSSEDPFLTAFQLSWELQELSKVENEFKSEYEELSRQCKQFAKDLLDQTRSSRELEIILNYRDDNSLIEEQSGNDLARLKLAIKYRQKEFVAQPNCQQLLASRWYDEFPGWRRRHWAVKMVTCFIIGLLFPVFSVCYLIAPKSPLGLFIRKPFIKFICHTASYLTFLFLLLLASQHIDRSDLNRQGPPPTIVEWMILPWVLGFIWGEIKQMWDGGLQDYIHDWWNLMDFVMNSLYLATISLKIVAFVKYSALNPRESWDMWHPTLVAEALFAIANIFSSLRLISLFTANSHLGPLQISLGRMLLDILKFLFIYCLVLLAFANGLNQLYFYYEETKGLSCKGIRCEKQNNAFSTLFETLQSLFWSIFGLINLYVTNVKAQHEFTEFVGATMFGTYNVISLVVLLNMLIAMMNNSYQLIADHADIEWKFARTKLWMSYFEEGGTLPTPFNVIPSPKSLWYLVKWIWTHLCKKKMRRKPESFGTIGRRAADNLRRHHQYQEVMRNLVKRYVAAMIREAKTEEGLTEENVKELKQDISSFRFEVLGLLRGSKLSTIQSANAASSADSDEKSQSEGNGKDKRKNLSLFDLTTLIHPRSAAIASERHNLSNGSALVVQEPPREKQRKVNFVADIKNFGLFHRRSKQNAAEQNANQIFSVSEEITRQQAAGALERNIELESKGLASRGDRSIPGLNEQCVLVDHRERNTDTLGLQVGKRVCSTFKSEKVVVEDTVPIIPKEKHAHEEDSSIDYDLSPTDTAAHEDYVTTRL
Nature of the experiment: TRPC4 inhibitor concentration-response, dose response, cell-based, HEK293 TRPC4/mu-opioid, DAMGO stimulus, Fluo-4 (AID 492994). Format: functional.

Experiment [28] in a line: Luminescence Cell-Based Dose Response HTS to Identify Activators of Luciferase Translation or Activity in H4 […] Cells. [Related pubchem assays: 1829 (Project Summary), 1814 (Primary HTS)]. Format: functional.
For experiment [29], the system named is HEK293. Nature of the experiment: cells. Format: functional, cell-based. The settings on record: Homo sapiens.
For experiment [30], the system named is H4. Kind of experiment: Luminescence Cell-Based Dose Response HTS to Identify Activators of 5'UTR Stem-Loop Driven Prion Protein mRNA Translation in H4 Neuroglioblastoma Cells. [Related pubchem assays: 1829 (Project Summary), 1814 (Primary HTS)]. It is filed as functional. The note with it: Homo sapiens.
Experiment [31] has as its target T3, Nuclear receptor subfamily 0 group B member 1 (Homo sapiens, UniProt P51843).
T3 sequence (P51843 whole entry): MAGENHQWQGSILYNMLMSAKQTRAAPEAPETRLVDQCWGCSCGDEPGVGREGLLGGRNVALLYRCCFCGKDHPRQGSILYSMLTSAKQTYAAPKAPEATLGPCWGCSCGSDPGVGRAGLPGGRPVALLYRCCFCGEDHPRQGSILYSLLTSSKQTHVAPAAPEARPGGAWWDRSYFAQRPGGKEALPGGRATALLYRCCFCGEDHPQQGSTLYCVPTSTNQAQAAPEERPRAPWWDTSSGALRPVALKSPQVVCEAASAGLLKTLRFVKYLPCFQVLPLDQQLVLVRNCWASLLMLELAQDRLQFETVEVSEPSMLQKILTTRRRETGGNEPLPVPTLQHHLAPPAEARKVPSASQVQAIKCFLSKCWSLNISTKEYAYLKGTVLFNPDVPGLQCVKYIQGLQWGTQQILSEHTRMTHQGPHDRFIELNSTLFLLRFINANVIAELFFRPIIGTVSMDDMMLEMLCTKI
Kind of experiment: Luminescence-based cell-based high throughput dose response assay for inhibitors of the orphan nuclear receptor subfamily 0, group B, member 1 (DAX1; NR0B1). [Related pubchem assays (depositor defined):AID504766, AID504790]. Format: functional.

Activity calls are given as the source filed them.

We go through five compounds from ChEMBL document CHEMBL1201862, “PubChem BioAssay data set” (2004).

The AC50 is the midpoint of the concentration-response curve, whichever way the signal moves. A word on the EC50: it is the midpoint of the concentration-response curve. As usually defined, the CC50 is the concentration that lowers cell viability or growth by half. A word on the IC50: it is the concentration that inhibits the measured activity by half.

Chain of Glucose-6-phosphate 1-dehydrogenase (P11413 whole entry): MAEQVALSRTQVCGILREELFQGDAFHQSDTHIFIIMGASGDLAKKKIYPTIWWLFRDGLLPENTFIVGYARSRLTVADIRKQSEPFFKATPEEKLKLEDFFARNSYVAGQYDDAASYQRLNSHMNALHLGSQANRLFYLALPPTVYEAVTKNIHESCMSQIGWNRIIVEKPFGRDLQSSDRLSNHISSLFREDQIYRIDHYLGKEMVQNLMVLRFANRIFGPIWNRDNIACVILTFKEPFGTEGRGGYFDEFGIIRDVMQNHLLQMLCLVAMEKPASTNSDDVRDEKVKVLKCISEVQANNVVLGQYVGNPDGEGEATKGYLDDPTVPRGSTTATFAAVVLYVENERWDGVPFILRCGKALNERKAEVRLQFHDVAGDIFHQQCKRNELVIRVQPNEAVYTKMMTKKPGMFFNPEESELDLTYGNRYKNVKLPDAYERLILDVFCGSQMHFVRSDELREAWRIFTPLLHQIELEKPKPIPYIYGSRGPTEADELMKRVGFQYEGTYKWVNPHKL

As to `CC(=O)CSc1ccc(-c2nc3cc(C)c(C)cc3[nH]2)cn1`, the AC50 is 1.11 µM (active) in experiment [1]; 34.7 µM (active) in experiment [5]; 3.67 µM (active) in [9]; 0.82 µM (active) in experiment [12]; > 52 µM (inactive) in experiment [13]; > 52 µM (inactive) in experiment [14]. Also, the 50% effective concentration (EC50) in [2] is 0.837 µM (active); in experiment [3] it was > 12 µM (inconclusive); in experiment [4], 12.8 µM (active); in [6], 0.113 µM (active); in experiment [7] it was < 0.1 µM (active); in experiment [8] it was > 92.5 µM (inactive). Besides, the EC50 in experiment [10] was > 92.5 µM (inactive); in [11], 1 µM (active); in experiment [15], 44.8 µM (inactive).

As to `Cc1ccnc(NC(=O)c2ccccc2NC(=O)c2ccc(Cl)cc2Cl)c1`, the EC50 in experiment [16] was 0.573 µM (active); in [4], > 120 µM (not active); in experiment [6] it was 10.6 µM (inconclusive); in [17], 2.83 µM (active); in [7], > 120 µM (not active); in experiment [18], 4.38 µM (active). Besides, the results for the concentration for a half-maximal effect (EC50) in experiment [19] and in [20] were 34.8 µM (inconclusive) and 2.87 µM (active), respectively.

With `Cn1c2ccccc2c2ccc3c(c21)C(=O)C=CC3=O`, the concentration at half-maximal activity (AC50) in experiment [21] was 8.99 µM (active). Moreover, the CC50 in experiment [22] was 29.2 µM (active); in [26], 12.6 µM (active). Also, the IC50 in experiment [23] was 15.8 µM (active); in experiment [24], 4.59 µM (active); in experiment [25] it was > 80 µM (inactive).

Regarding `Cc1cc(N2CCN(c3ncccn3)CC2)nc2ccccc12`, in [27], the half-inhibitory concentration (IC50) is 469 µM (active).

On to `Clc1ccc(/C=N/Nc2ncnc3ccccc23)cc1Cl`, for which the EC50 in [28] was 0.181 µM (active); in [30] it was 7.13 µM (active). Moreover, the IC50 in [29] and in [31] was > 67.5 µM (inactive) each time.
